Experimental data as given in US20210252159A1, “CONJUGATES OF CARTILAGE-HOMING PEPTIDES” (priority 2018, published 2021).
Where two headings read alike, the source gives them in different places.

What was measured:
IL-6 = details: 30 or 3 μg, 4 h
Description: After 4 h, IL-6 levels in synovial fluid of the same knee were measured by Luminex and normalized to protein content of the knee lavage.

[1] = Systemic markers for glucocorticoid exposure in normal rats; assay type: in vivo; details: normal female Lewis rats
Description: In order to evaluate markers of systemic dexamethasone exposure in normal rats, time points were selected to simulate drug administration for studies (e.g., dosing on days 10 and 11, euthanize on day 12 or dosing on days 11-14 and euthanize on day 14). […] Rats were euthanized 24 hours after the second dose, or 5 hours after the fourth dose. Body weight was measured daily. At euthanasia, liver, spleen, thymus, and kidney weights were recorded and blood was collected for CBC and serum chemistry analysis. To establish the CIA model, female Lewis rats were inoculated with an intradermal injection of bovine collagen II on day 0 and a challenge dose was administered on day 7. Ankle and knee joint diameters were measured daily. Rats were euthanized on day 10, day 12 and day 14 at which time liver, spleen, thymus, and kidney weights were recorded and blood was collected for complete blood count (CBC)/blood chemistry analysis.

[2] = IL-1β challenge rat model, dose-ranging study: CBC, organ weights, tolerability; assay type: in vivo, rats
Description: IL-6 was measured in knee lavage fluid using a Luminex assay and levels were normalized to total protein in the lavage fluid (FIG. 24). Assessment of the PD inflammatory marker IL-6 in the knee joints of rats challenged with IL-1β was performed. Terminal synovial fluid was collected from all animals and analyzed by Luminex 200 for IL-6 cytokine concentrations using EMD Milliplex MAP Rat Cytokine/Chemokine Magnetic Panel ([…]-65K). […] Doses are listed as nmol/kg The masses of these doses are given below in TABLE 16. Two hours and forty-five minutes (i.e., 2.75 hrs) after administration of the test agents, animals were gently heated and blood was drawn from the tail vein for CBC analysis. Animals were then anesthetized with inhaled isoflurane and injected with 30 ng of IL-1β into the right knee (except for no IL-1β group). Four hours after administration of IL-1β (seven hours after administration of test agent) the animals were euthanized. Blood was drawn for a second CBC analysis and the right knee was lavaged for detection of IL-6 in the lavage fluid using a Luminex assay. Thymus and spleen were harvested and their organ weights determined.
In the same animals for which IL-6 secretion was measured, CBC data (e.g., lymphocyte counts) were also analyzed (FIG. 25) at an early time-point, 2.75 hrs post administration of the test article (FIG. 25A), and at euthanasia 7 hrs post administration (FIG. 25B). All treatments were administered as described above for the measurement of IL-6 secretion.
All treatments and test articles were administered as described above, except for an additional treatment group that received 510 nmol/kg of the peptide-drug conjugate peptide(SEQ ID NO: 105)-DMA-dCIC.

CIA rats [3] = assay type: in vivo; details: 0.2 mg/kg on study day 0 and day 1
Description: A study was conducted in CIA rats to address the following: 1) functionality and duration of effect for peptide(SEQ ID NO: 105)-carbamate-Dex at 0.2 mg/kg as compared to Dex alone at the same dose; 2) functionality and duration of effect for peptide(SEQ ID NO: 105)-DMA-Dex at 0.05 mg/kg as compared to Dex alone at the same dose; 3) systemic markers of Dex exposure in rats treated with each PDC and Dex at their respective doses (FIG. 16B-FIG. 16G).
CIA was induced as described above in EXAMPLE 21. Rats were enrolled in the study following onset of arthritis in at least one ankle and randomly assigned into one of five treatment groups (vehicle; peptide-carbamate 0.2 mg/kg; Dex 0.2 mg/kg; peptide-DMA conjugate 0.05 mg/kg; Dex 0.05 mg/kg) with 5 rats per group. Treatment was administered on study day 0 and study day 1 and rats were euthanized on study day 7. The primary read-out in this cohort was change in ankle diameter during and after treatment, as a measure of functionality and duration of effect. […] The primary read-out for this cohort was measures of systemic exposure to Dex which included thymus weight, spleen weight, total white blood cell counts, lymphocyte counts, and change in body weight.

CIA rats [4] = tested on: CIA rats
Description: Arthritis was induced in 9-week-old female Lewis rats (Envigo or Charles River Laboratories) by intradermal injection while anesthetized of 400 ug bovine type II collagen (Chondrex Inc, Redmond Wash.) in 2 adjacent 200 ul (1 mg/ml) doses on day 0. Collagen is prepared for injection by dissolving at 2 mg/ml in 0.01N glacial acetic acid in sterile water and rocking at 4° C. overnight then emulsifying in Freund's incomplete adjuvant (IFA, Sigma Aldrich). To emulsify, equal volumes of collagen solution and IFA are drawn up into separate syringes, which are joined by a 3-way stopcock. While on ice, the collagen and IFA are mixed by pressing between the two syringes rapidly for 10 minutes. Quality of the emulsification is tested after 10 minutes of mixing by dropping a small amount of mixture in water. A properly emulsified solution will remain as a discrete droplet and not disperse in the water. On day 7, rats are challenged with a second intradermal injection of 100 ug of collagen in 100 ul, 1 mg/ml, collagen in IFA solution prepared fresh. Body weight and ankle diameter measurements are recorded daily from day 7 through the end of the study. Ankle diameter was measure by a single researcher using a Fowler Digitrix 2 micrometer. Three measurements of each ankle were taken of the lateral dimension at the tarsus of lightly anesthetized rats. The reported ankle diameter measurement is the mean of the three measurements.
Arthritis was induced as described in four cohorts of 9-week-old female Lewis rats. Rats were randomly placed in treatment groups, balancing compound and dose groups across cohorts. […] Rats were dosed by tail vein injection on days 11 and 12 and euthanized on day 13 by CO2 asphyxiation. Immediately after cessation of respiratory movement, blood was collected by cardiac puncture, synovial fluid was collected from both knees, one hind limb was fixed in formalin and the alternate ankle was frozen on dry ice. Thymus, spleen, liver, and kidney weights were recorded.
CIA Response study design.
The aim of the study was to test the 4 conjugates with various linkers at two different doses in vivo in CIA rats to assess the following: ability to deliver sufficient dexamethasone to the joint to show functionality and potential therapeutic effect in the disease model.
CIA was induced in female Lewis rats (as described above, see EXAMPLE 21). Body weight and ankle joint diameters were measured on day 0 and then daily from day 7 until euthanasia. […] At euthanasia, synovial fluid was collected from both knees, one hind limb was fixed in formalin and the alternate ankle was frozen on dry ice. Thymus, spleen, liver, and kidney weights were recorded. Blood samples were submitted for CBC/Chemistry analysis, and the remaining plasma was frozen.

[5] = 1 mg/kg/day for 2 days and 4 days
[6] = 1 mg/kg/day for 2 days or 4 days, vs vehicle and CIA rats

Dexamethasone sodium phosphate [DexSP]
IL-6 secretion in synovial fluid (IL-6; administered IA (co-injected with IL-1b)): no decrease
IL-6 secretion in synovial fluid (IL-6; administered IV): some decrease
other liver enzymes ([1]; 1 mg/kg/day): no significant changes
red blood cell (RBC) count, hematocrit, neutrophil, monocyte or eosinophil counts ([1]; 1 mg/kg/day): no significant changes
absolute lymphocyte count [1, 5]: decreased
total white blood cell (WBC) count [1, 5]: decreased
Body weight ([1]; 1 mg/kg/day for 2 days or 4 days): declined
spleen weight [1, 6]: significantly decreased
thymus weight [1, 6]: significantly decreased
Nucleated RBCs ([1]; 4 doses of 1 mg/kg/day): detected in four of the five rats
monocytes (CBC) ([2]; 2.75 hours post-treatment): dose dependent decrease
Lymphocyte counts as compared to vehicle control ([2]; 2.75 hrs post administration, Dex both doses, dCIC IA or IV): substantial reduction in lymphocyte counts
Lymphocyte counts at euthanasia ([2]; 7 hours post administration, all dose levels): lower at 7 hours as compared to 2.75 hours
ankle inflammation / ankle diameter as compared to vehicle (CIA rats [3]): highly effective in reducing ankle diameter to baseline levels
spleen weight (CIA rats [4]; 0.2 mg/kg and 0.5 mg/kg dose): reduction
thymus weight (CIA rats [4]; 0.2 mg/kg and 0.5 mg/kg dose): reduction
total body weight (CIA rats [4]; 0.2 mg/kg and 0.5 mg/kg dose): reduction
change in median ankle diameter between day 11 and day 13 as compared to vehicle (CIA rats [4]; 0.2 mg/kg dose): did not reach statistical significance
reduction in thymus weight as compared to vehicle (CIA rats [4]; 0.2 mg/kg dose groups): statistically significant
